Each structure is given as a SMILES string. Entries after “also recorded” stand apart in the source; their conditions may differ. Where two headings read alike, the source gives them in different places.

Series [1] deals with HUVEC (normal endothelial) cells. Kind of series: MTT cytotoxicity assay, HUVEC. The format is cell-based. The conditions noted are these: Homo sapiens, read-out: IC50 HUVEC. On the procedure:
(§1) The cytotoxicity of new derivatives of dicarboximides was tested in HeLa (cervix carcinoma cell line), K562 (myelogenous leukemia cell line), MOLT-4 (Human T-Lymphoid Cell Line), and HUVEC (normal endothelial) cells. First, the viability of cells was determined after 48 h incubation with the screened compounds used at the concentration of 100 μM (data not shown). […] Cells exposed to 1% DMSO (as vehicle) served as the control with 100% survival.
(§2) Human umbilical vein endothelial cells (Life Technologies, Carlsbad, CA, USA) were cultured (according to the manufacturer’s instructions) in Medium 200 containing low serum growth supplement; 1 × 10^4 cells were seeded on each well on a 96-well plate (Nunc, Roskilde, Denmark). The HeLa (human cervix carcinoma), K562, and MOLT-4 (leukemia) cells were cultured in RPMI 1640 medium supplemented with antibiotics and 10% fetal calf serum in a 5% CO2–95% air atmosphere; 7 × 10^3 cells were seeded on each well on a 96-well plate (Nunc). Twenty-four hours later, cells were exposed to the test compounds for additional 48 hours. Stock solutions of test compounds were freshly prepared in DMSO. The final concentrations of the compounds tested in the cell cultures were 2 × 10^−1, 1 × 10^−1, 5 × 10^−2, 1 × 10^−2, 1 × 10^−3, and 1 × 10^−4 mM. The concentration of DMSO in the cell culture medium was 1%. The values of IC50 (the concentration of test compound required to reduce the cell survival fraction to 50% of the control) were calculated from dose–response curves and used as a measure of cellular sensitivity to a given treatment. The cytotoxicity of all compounds was determined by the MTT [3-(4,5-dimethylthiazol-2-yl)-2,5-diphenyltetrazolium bromide; Sigma, St. Louis, MO, USA] assay. Briefly, after 24 or 48 h of incubation with drugs, the cells were treated with the MTT reagent, and incubation was continued for 2 h. MTT-formazan crystals were dissolved in 20% SDS and 50% DMF at pH 4.7, and absorbance was read at 570 and 650 nm on a microplate reader FLUOstar Omega (BMG Labtech, Offenburg, Germany). As a control (100% viability), we used cells grown in the presence of the vehicle (1% DMSO) only.
For orientation: Tetrazolium dyes change colour on reduction, which living cells bring about.

In series [2] the test system is MOLT-4 (Human T-Lymphoid Cell Line). In words: MTT cytotoxicity assay, MOLT-4. Format: cell-based. The conditions noted are these: read-out: IC50 MOLT-4. On the procedure: as §1, §2
Series [3] has as its system HeLa (human cervix carcinoma) cells. Kind of series: MTT cytotoxicity assay, HeLa. Format: cell-based. The note with it: 48 h incubation, average (SD) of three experiments, read-out: IC50 HeLa. The protocol: as §1, §2
The test system of series [4] is caspase 3/7 in K562 cells. In words: Caspase-3/7 activity assay (Apo-ONE) in K562 cells. The format is cell-based, human. The conditions noted are these: K562, 18 h, test compound at 5xIC50, staurosporine 1 μM; vs 1% DMSO. The protocol: After incubation for 18 h, K562 cells were lysed and the activity of caspase 3/7 was measured using a profluorescent peptide substrate.
First, 20 × 10^3 K562 cells were seeded on each well of a 96-well plate in RPMI 1640 medium supplemented with 10% fetal calf serum and antibiotics. Cells were grown for 24 h at 37 °C and 5% CO2. Test dicarboximides were dissolved in DMSO and added to cell culture to the final concentration of 5 × IC50. […] Cells were exposed to test compounds for 18 h at 37 °C and 5% CO2. Subsequently, the activity of caspase 3 and 7 was measured by Apo-ONE® Homogeneous Caspase-3/7 Assay (Promega, Madison, WI, USA) according to the manufacturer’s instructions. Briefly, the cells were lysed and incubated for 1.5 h with a profluorescent substrate for caspase 3 and 7. Next, the fluorescence was read at an excitation wavelength of 485 nm and emission of 520 nm with a FLUOStar Omega microplate reader (BMG-Labtech, Offenburg, Germany).

Series [5] concerns K562 (myelogenous leukemia cell line). Kind of series: MTT cytotoxicity assay, K562. The format is cell-based, human. The conditions noted are these: 48 h incubation, average (SD) of three experiments, read-out: IC50 K562. On the procedure:
as §1, §2

Series [6] concerns plasmid DNA (pcDNA3.1HisC). In words: DNA-cleavage protection assay (BamHI digestion of plasmid DNA). The format is biochemical. The note with it: 100 µM, overnight 37 °C, then BamHI 3 h. On the procedure:
A DNA-cleavage protection assay has been successfully used for the identification of compounds that bind DNA either covalently or noncovalently. Such binding may result in DNA being less susceptible to enzymatic cleavage. […] It was also reported that naphtalenoimides or indolomaleimides intercalate into DNA [13, 14]. […] In CD studies, a synthetic 23-nt duplex DNA or bovine thymus DNA was incubated with compound Ic or daunorubicin (reference compound). […] Using a DNA-cleavage protection assay, we investigated whether selected compounds 2c, 2d, and 2f and 3c, 3d, and 3f interact with a plasmid DNA, resulting in increased resistance to endonucleolytic cleavage. Plasmid DNA (pcDNA3.1HisC) containing a single BamHI cleavage site was incubated with test compounds and subsequently digested with BamH1 restriction endonuclease. Daunorubicin (a strong DNA-intercalating agent) was used as a reference compound. Non-digested plasmid DNA existed predominantly in the circular form; however, the superhelical and linear forms were also detected (Figure 5, lane 1). […] This observation can be explained by the higher lipophilicity of 3c, 3d, and 3f compared to 2c, 2d, and 2f, which may facilitate their more efficient binding to DNA.
First, 0.5 μg of plasmid DNA (pcDNAHisC, total length 5.5 kbp) containing a unique BamHI restriction site was dissolved in a 1× BamHI reaction buffer and incubated overnight at 37 °C with the test compounds or daunorubicin. Daunorubicin, a strong intercalating agent, was used as a positive control. The concentration of the test compounds and daunorubicin samples was 100 µM. In the next step, the reaction mixtures were digested with BamHI restriction endonuclease (2 U/μL) for 3 h at 37 °C. The total reaction volume was 10 μL. Products of the reaction were subjected to the 1% agarose gel electrophoresis in TBE buffer. The gel was stained with ethidium bromide, and DNA fragments were visualized under a UV lamp (GBox, Syngene).

Series [7] can be described thus: MTT cytotoxicity assay, cancer cell lines taken together (HeLa, K562, MOLT-4). The format is cell-based. The note with it: human, K562 and MOLT-4 cancer cells. On the procedure: The cytotoxicity of new derivatives of dicarboximides was tested in HeLa (cervix carcinoma cell line), K562 (myelogenous leukemia cell line), MOLT-4 (Human T-Lymphoid Cell Line), and HUVEC (normal endothelial) cells. First, the viability of cells was determined after 48 h incubation with the screened compounds used at the concentration of 100 μM (data not shown). For compounds that reduced the viability of cancer cells by more than 50%, the IC50 values were determined (Table 2). Cells exposed to 1% DMSO (as vehicle) served as the control with 100% survival.
Human umbilical vein endothelial cells (Life Technologies, Carlsbad, CA, USA) were cultured (according to the manufacturer’s instructions) in Medium 200 containing low serum growth supplement; 1 × 10^4 cells were seeded on each well on a 96-well plate (Nunc, Roskilde, Denmark). […] The cytotoxicity of all compounds was determined by the MTT [3-(4,5-dimethylthiazol-2-yl)-2,5-diphenyltetrazolium bromide; Sigma, St. Louis, MO, USA] assay. […] MTT-formazan crystals were dissolved in 20% SDS and 50% DMF at pH 4.7, and absorbance was read at 570 and 650 nm on a microplate reader FLUOstar Omega (BMG Labtech, Offenburg, Germany). […]

Where [8] appears, read: 48 h incubation, average (SD) of three experiments.
Setting [9] is: MOLT-4, 48 h incubation, average (SD) of three experiments.

In turn, `CC12C(=O)C(C)(C(c3ccccc3)=C1c1ccccc1)C1C(=O)N(CCCl)C(=O)C12` (stereo not drawn) [1h, 4-(2-chloroethyl)-1,7-dimethyl-8,9-diphenyl-4-azatricyclo[5.2.1.0^2,6]dec-8-ene-3,5,10-trione] yielded a melting point of 190 to 191 °C. In addition, the 50% inhibitory concentration (IC50) in series [1] (48 h) worked out at 64 µM. For the same compound, in series [2] (MOLT-4, 48 h), the IC50 is 20 µM.

With `CCC12C(=O)C(CC)(C(c3ccccc3)=C1c1ccccc1)C1C(=O)N(CC(O)CN3CCCCC3)C(=O)C12` (stereo not drawn) [2f, 4-[2-hydroxy-3-(piperidin-1-yl)propyl]-1,7-diethyl-8,9-diphenyl-4-azatricyclo[5.2.1.0^2,6]dec-8-ene-3,5,10-trione], the concentration for half-maximal inhibition (IC50) is 5.1 µM in series [3]; 3.1 µM in series [1] (setting [8]); 3.4 µM in series [2] (setting [9]); 3.9 µM in series [5]; under 6 µM in series [5] (Homo sapiens, K562, 48 h). For the same compound, the “activity of caspase 3/7” value in series [4] is “over eight-fold increase in caspase activity; also recorded: activated caspase 3 and 7”. In series [6], the “protection of plasmid DNA from BamHI digestion (circular DNA left)” value (“protection of plasmid DNA” for short) is “the circular form was also detected”.

With `O=C1C2C(C(=O)N1CC(O)CN1CCCCC1)C1(c3ccccc3)CC2(c2ccccc2)C(c2ccccc2)=C1c1ccccc1` (stereo not drawn) [3f, 4-[2-hydroxy-3-(piperidin-1-yl)propyl]-1,7,8,9-tetraphenyl-4-azatricyclo[5.2.1.0^2,6]dec-8-ene-3,5-dione], the IC50 in series [3] was 3 µM; in series [1] (setting [8]) it was 0.4 µM; in series [2] (setting [9]) it was 3 µM; in series [5], 3 µM; in series [5] (Homo sapiens, K562, 48 h), under 6 µM. The “activity of caspase 3/7” value in series [4] is “activated caspase 3/7 to a lesser extent; also recorded: activated caspase 3 and 7”. In series [6], the “protection of plasmid DNA” value is on record as “interaction seems to be stronger”.

As for `CC12C(=O)C(C)(C(c3ccccc3)=C1c1ccccc1)C1C(=O)N(CCO)C(=O)C12` (stereo not drawn) [compound 4, 4-(2-hydroxyethyl)-1,7-dimethyl-8,9-diphenyl-4-azatricyclo[5.2.1.0^2,6]dec-8-ene-3,5,10-trione], the melting point fell in the range of 186 to 187 °C. In addition, the 50% inhibitory concentration (IC50) in series [3] is 61 µM. The IC50 in series [1] (setting [8]) was 56 µM. The IC50 in series [2] (setting [9]) was 71 µM. The IC50 in series [5] (Homo sapiens, K562, 48 h) came to 105 µM.

Compound `O=C1C2C(C(=O)N1CCO)C1(c3ccccc3)CC2(c2ccccc2)C(c2ccccc2)=C1c1ccccc1` (stereo not drawn) [compound 5, 4-(2-hydroxyethyl)-1,7,8,9-tetraphenyl-4-azatricyclo[5.2.1.02,6]dec-8-ene-3,5-dione] returned a melting point of 197 to 198 °C. Besides, in series [3], the IC50 was determined as 8 µM. Further, in series [1] (setting [8]), the IC50 is 0.7 µM. Further, in series [2] (setting [9]), the IC50 was found to be 2.1 µM. Moreover, the half-inhibitory concentration (IC50) in series [5] (Homo sapiens, K562, 48 h) turned out to be 6.2 µM.

Take `COc1cccc2c1C(=O)c1c(O)c3c(c(O)c1C2=O)C[C@@](O)(C(C)=O)C[C@@H]3O[C@H]1C[C@H](N)[C@H](O)[C@H](C)O1` [daunorubicin, reference compound]: the “protection of plasmid DNA” value in series [6] is recorded as “prevented linearization of DNA”.

Compound `CN[C@@H]1C[C@H]2O[C@@](C)([C@@H]1OC)n1c3ccccc3c3c4c(c5c6ccccc6n2c5c31)C(=O)NC4` [staurosporine, reference compound] gave a viability at 48 h, 1 µM in series [7] of 44 to 49%. In series [4], the “activity of caspase 3/7” value is recorded as “strongly activated caspase 3/7”.

As a reminder, the melting point is the temperature, or range, at which the solid turns liquid. The term IC50 denotes the point on the concentration scale where inhibition reaches its midpoint. One may read the viability as a read-out of living cells in per cent, often relative to untreated cells. High values mean better survival, low ones a greater loss of cells.

The record behind these values is paper PMC8122671, “New Succinimides with Potent Anticancer Activity: Synthesis, Activation of Stress Signaling Pathways and Characterization of Apoptosis in Leukemia and Cervical Cancer Cells” (International Journal of Molecular Sciences, 2021).
